Laboratory results: ChEMBL document CHEMBL3217632, “Water soluble flavonol prodrugs that protect against ischaemia-reperfusion injury in rat hindlimb and sheep heart” (Medchemcomm, 2011)
Calls of active or inactive are those of the source. The calls are words filed in the database; no cut-off is given here.

Tests used:
Thoracic aorta [1] = assay: Inhibition of superoxide anion production in Sprague-Dawley rat thoracic aorta with intact endothelium by lucigenin-based chemiluminescence analysis in presence of NADPH; type: functional
[2] = Aqueous solubility of the compound; type: physicochemical; details: water (aqueous)
Thoracic aorta [3] = assay: Vasorelaxant activity in Sprague-Dawley rat thoracic aorta with intact endothelium assessed as inhibition of Ca2+-induced contraction after 20 mins; type: functional, tissue-based; details: for IC50: Rattus norvegicus, Sprague-Dawley, Thoracic aorta, 20 min
Thoracic aorta [4] = assay: Inhibition of superoxide anion production in Sprague-Dawley rat thoracic aorta with intact endothelium by lucigenin-based chemiluminescence analysis in presence of NADPH and alkaline phosphatase; type: functional
Thoracic aorta [5] = assay: Vasorelaxant activity in Sprague-Dawley rat thoracic aorta with intact endothelium assessed as inhibition of Ca2+-induced contraction after 20 mins in presence of alkaline phosphatase; type: functional, tissue-based; details: for IC50: Rattus norvegicus, Sprague-Dawley, Thoracic aorta, 20 min
Thoracic aorta [6] = assay: Vasorelaxant activity in Sprague-Dawley rat thoracic aorta with intact endothelium assessed as Ca2+-induced contraction after 20 mins in absence of alkaline phosphatase; type: functional, tissue-based
Thoracic aorta [7] = assay: Inhibition of superoxide anion production in Sprague-Dawley rat thoracic aorta with intact endothelium pretreated with butyrylcholinesterase for 1 hr by lucigenin-based chemiluminescence analysis in presence of NADPH; type: functional
Thoracic aorta [8] = assay: Inhibition of superoxide anion production in Sprague-Dawley rat thoracic aorta with intact endothelium by lucigenin-based chemiluminescence analysis in presence of NADPH and absence of butyrylcholinesterase; type: functional, tissue-based
Thoracic aorta [9] = assay: Vasorelaxant activity in Sprague-Dawley rat thoracic aorta with intact endothelium assessed as Ca2+-induced contraction after 20 mins in absence of butyrylcholinesterase; type: functional, tissue-based
Thoracic aorta [10] = assay: Vasorelaxant activity in Sprague-Dawley rat thoracic aorta with intact endothelium assessed as inhibition of Ca2+-induced contraction pretreated with butyrylcholinesterase for 1 hr; type: functional, tissue-based; details: for IC50: Rattus norvegicus, Sprague-Dawley, Thoracic aorta
[11] = Solubility of the compound in aqueous sodium carbonate; type: physicochemical
Rattus norvegicus [12] = organism: Rattus norvegicus; assay: Cardiotoxicity in Sprague-Dawley rat hindquarters ischemia/reperfusion model assessed as change in heart rate measured following ischemia/reperfusion by tachometer analysis; type: toxicity, organism-based; details: in vivo
Rattus norvegicus [13] = assay: Cardioprotective activity in iv dosed Sprague-Dawley rat hindquarters ischemia/reperfusion model assessed as decrease in circulating LDH level administered as bolus injection 5 mins prior to reperfusion by spectrophotometric analysis; type: functional, organism-based
Rattus norvegicus [14] = organism: Rattus norvegicus; assay: Cardiotoxicity in Sprague-Dawley rat hindquarters ischemia/reperfusion model assessed as change in mean arterial pressure measured following ischemia/reperfusion; type: toxicity, organism-based, Artery; details: in vivo
Ovis aries [15] = assay: Cardioprotective activity in merino sheep ischemia/reperfusion injury model assessed as decrease in infarct size at 6.6 mg/kg, iv administered as bolus dose at 10 mins prior to reperfusion measured 3 hrs post-reperfusion by triphenyltetrazolium chloride staining; type: functional, organism-based; parameters: dose 6.6 mg/kg
Ovis aries [16] = assay: Cardioprotective activity in merino sheep ischemia/reperfusion injury model assessed as circulating LDH level 6.6 mg/kg, iv administered as bolus dose at 10 mins prior to reperfusion measured 3 hrs post-reperfusion by automated analyzer (reference value: 152 +/-50 U/L); type: functional
Plasma = assay: Prodrug conversion in Sprague-Dawley rat plasma assessed as 3',4'-dihydroxyflavonol formation at 6.6 mg/kg, iv measured within 2 mins of drug administration by LC-MS/MS analysis; type: ADME, organism-based; parameters: dose 6.6 mg/kg, route intravenous; details: in vivo
Ovis aries [17] = assay: Cardioprotective activity in merino sheep ischemia/reperfusion injury model assessed as infarct size at 5 mg/kg, iv administered as 20 mins infusion at 10 mins prior to reperfusion measured 3 hrs post-reperfusion by triphenyltetrazolium chloride staining (reference value: 80 +/-3%); type: functional
Ovis aries [18] = assay: Cardioprotective activity in iv dosed merino sheep ischemia/reperfusion injury model assessed as circulating LDH level measured 2 hrs post-reperfusion (reference value: 604 +/-58 U/L); type: functional

O=c1c(O)c(-c2ccccc2)oc2ccccc12 [FLAVONOL]
Rmax (Thoracic aorta [1]): 20% | solubility [2]: < 1 mg/mL | Rmax (Thoracic aorta [3]): 19% | IC50 (Thoracic aorta [3]): 4.27 µM

O=c1c(OP(=O)([O-])[O-])c(-c2ccccc2)oc2ccccc12.[Na+].[Na+]
Rmax (Thoracic aorta [4]): 36% | Rmax (Thoracic aorta [5]): 40% | IC50 (Thoracic aorta [5]): 4.68 µM | solubility [2]: > 200 mg/mL | Activity (Thoracic aorta [6]): inactive

O=C(O)CCCCC(=O)Oc1c(-c2ccc(O)cc2)oc2ccccc2c1=O
Rmax (Thoracic aorta [7]): 30% | inhibition (Thoracic aorta [8]): inactive | Activity (Thoracic aorta [9]): inactive | Rmax (Thoracic aorta [10]): 70% | IC50 (Thoracic aorta [10]): 35.5 µM | solubility [11]: > 50 mg/mL

O=c1c(OP(=O)([O-])[O-])c(-c2ccc(O)cc2)oc2ccccc12.[Na+].[Na+]
Rmax (Thoracic aorta [4]): 27% | Activity (Rattus norvegicus [12]): Non-toxic | Activity (Rattus norvegicus [13]): Active | Rmax (Thoracic aorta [5]): 63% | IC50 (Thoracic aorta [5]): 3.98 µM | Activity (Rattus norvegicus [14]): Non-toxic | solubility [2]: > 200 mg/mL | Activity (Thoracic aorta [6]): inactive | Activity (Ovis aries [15]): Active

O=C(O)CCCCC(=O)Oc1c(-c2ccc(O)c(O)c2)oc2ccccc2c1=O
Rmax (Thoracic aorta [7]): 70% | inhibition (Thoracic aorta [8]): inactive | Activity (Ovis aries [16]): 70 U/L | Activity (Thoracic aorta [9]): inactive | Drug metabolism (Plasma): Active | Activity (Rattus norvegicus [12]): Non-toxic | Rmax (Thoracic aorta [10]): 76% | IC50 (Thoracic aorta [10]): 33.9 µM | Activity (Rattus norvegicus [13]): Active | Activity (Rattus norvegicus [14]): Non-toxic | solubility [11]: > 50 mg/mL | Activity (Ovis aries [15]): Active

O=c1c(O)c(-c2ccc(O)c(O)c2)oc2ccccc12
Activity (Ovis aries [17]): 50% | Activity (Ovis aries [18]): 405 U/L | Activity (Rattus norvegicus [12]): Non-toxic | Rmax (Thoracic aorta [1]): 84% | Activity (Rattus norvegicus [14]): Non-toxic | Rmax (Thoracic aorta [3]): 89% | IC50 (Thoracic aorta [3]): 9.55 µM

O=c1c(O)c(-c2ccc(O)cc2)oc2ccccc12
Rmax (Thoracic aorta [1]): 62% | solubility [2]: < 1 mg/mL | Rmax (Thoracic aorta [3]): 70% | IC50 (Thoracic aorta [3]): 11.7 µM
